Experimental data: patent US8491897B2, “Treatment of neuropathic pain using anti-thrombospondin antibodies” (The Board of Trustees of the Leland Stanford Junior …, priority 2007, dated 2013)
“Also recorded” adds a separate entry of the source.

What was measured:
[1] = target: T1, TSP4 (Rattus norvegicus, UniProt P49744); assay: Reversal of established tactile allodynia in L5/6 spinal nerve ligated rats (von Frey PWT); type: in vivo; details: 50 ug/day intrathecal for four days; for reversal of established allodynia in the injury (ipsilateral) side: 5 weeks post injury
T1 construct: elevated TSP4 protein may play a critical role in peripheral nerve injury-induced allodynia at the spinal level; from tissue; host or cells: spinal cord (L5/6) of live male Sprague Dawley rats, intrathecal injection
Procedure: To determine if TSP4 plays a role in mediating neuropathic pain processing at the spinal cord level, the effect of intrathecal TSP4 antisera in reversing established allodynia in spinal nerve ligated rats was examined. Intrathecal bolus injection of active TSP4 antibody (chicken polyclonal, from Dr. Frank Zaucke at University of Cologne, Cologne, Germany) was administered into left L5/6 spinal nerve ligated rats 2-weeks post injury, when the injured rats had fully developed allodynia. […] Neither the antisense nor mismatch oligodeoxynucleotides altered the behavioral thresholds at the non-injury side. […] Male Harlan Sprague Dawley rats (100-150 g, Harlan Industries Indianapolis, Ind.) were housed in separate cages, exposed to a 12/12 h day/night cycle and allowed free access to food and water. Peripheral nerve injury was induced in isoflurane-anesthetized animals with tight ligation of the left L5/6 spinal nerves between DRG and the beginning of the spinal nerve (Kim and Chung, Pain 50 50:355-363, 1992). To access tactile allodynia, paw withdrawal threshold (PWT) was determined using the up-down method of Dixon (Dixon, Ann. Rev. Pharma. & Toxico. 20:441-462, 1980) with von Frey filaments (Stoelting, Wood Dale, Ill., USA) as described previously (Chaplan et al., J. Neuros. Methods 53:55-63, 1994). Briefly, animals were allowed to acclimate for 30 min in a clear plastic cubicle with a wire-mesh base. A 2 g calibrated filament was first applied to the left hindpaw plantar surface with a pressure causing the filament to bend. If no paw lifting was detected after 5 s the next filament with increasing weight was used. If a paw lifting was observed, the next weaker filament was used. […] Neurosci. 21:1868-75, 2001). […] Rn014934317, Applied Biosystems), and is specific to the TSP 4 mRNA. Mismatch oligodeoxynucleotides, which contain the same number of nucleotides but in a random order (not complementary to any particular region of TSP4 mRNA), were used as controls. […] Genbank accession #: X89963) Oligodeoxynucleotides: These antisense and mismatch sequences were not complementary to any sequences of other rat genes as indicated by BLAST search results in rat genome database. It had been shown that oligodeoxynucleotides with phosphorothioate modification have increased potential for crossing lipid bilayers, and reduce nuclease cleavage (Crooke, et al., Ann. Rev. Pharmacology. & Toxicology, 1996).

[2] = test system: RGCs; assay: Inhibition of TSP-, astrocyte/ACM- or Hevin-induced synapse formation in RGC cultures; type: cell-based, rat
Procedure: (§1) RGCs were purified by sequential immunopanning to greater than 99.5% purity from P5 Sprague-Dawley rats (Simonsen Labs, Gilroy, Calif.), as previously described (Barres et. al. (1988) Neuron 9, 791). Approximately 30,000 RGCs were cultured per well in 24-well plates (Falcon) on glass (Assistant) or Aclar 22C (Allied Signal) coverslips coated with poly-D-lysine (10 μg/ml) followed by laminin (2 μg/ml). RGCs were cultured in 600 μl of serum-free medium, modified from Bottenstein and Sato (1979), containing Neurobasal (Gibco), bovine serum albumin, selenium, putrescine, triiodo-thyronine, transferrin, progesterone, pyruvate (1 mM), glutamine (2 mM), CNTF (10 ng/ml), BDNF (50 ng/ml), insulin (5 μg/ml), and forskolin (10 μM). Recombinant human BDNF and CNTF were generously provided by Regeneron Pharmaceuticals.
(§2) Purified human platelet TSP1 was from either Sigma or Haematologic Technologies with similar results. Recombinant TSP2 was purified from serum-free medium conditioned by baculovirus-infected insect cells expressing mouse TSP2. Since purified TSP1 is readily available, we used this as the source of TSP in our experiments unless otherwise stated TSPs were used at a concentration of 5 μg/ml unless otherwise specified. RCGs were cultured for 4 days to allow robust process outgrowth and then cultured with TSPs for an additional 6 days. All other reagents were obtained from Sigma.
(§3) For preparation of ACM, confluent cultures of astrocytes in 10 cm dishes were washed 3× in PBS and fed with 10 mls RGC medium (without CNTF, BDNF or forskolin). ACM was harvested after 4-6 days of conditioning, filtered through a 0.2 μm syringe filter and concentrated 10× through a 5 KD molecular weight cut-off centrifuge concentrator (Millipore), unless otherwise indicated. ACM was used at a final concentration of 5× unless otherwise indicated. RCGs were cultured for 4 days to allow robust process outgrowth and then cultured with ACM or an astrocyte-feeding layer for an additional 6 days.
For synapse quantification, cultures were fixed for 7 min in 4% paraformaldehyde (PFA), washed 3× in phosphate buffered saline (PBS) and blocked in 100 μL of blocking buffer (50% Antibody Buffer (0.5% bovine serum albumin, 0.5% Triton X-100, 30 mM NaPO4, 750 mM NaCl, 5% normal goat serum, and 0.4% NaN3, pH 7.4), 50% goat serum (NGS), 0.1% Triton-X) for 30 min. After blocking, cover slips were washed 3× in PBS and 100 μL of primary antibody solution was added to each cover slip, consisting of rabbit anti-synaptotagmin (cytosolic domain, Synaptic Systems) and mouse anti-PSD-95 (6G6-1C9 clone, Affinity Bio Reagents) diluted 1:500 in antibody buffer. Coverslips were incubated overnight at 4° C., washed 3× in PBS, and incubated with 100 μL of secondary antibody solution containing Alexa-594 conjugated goat anti-rabbit and Alexa-488 conjugated goat anti-mouse (Molecular Probes) diluted 1:1000 in antibody buffer. Following incubation for 2 h at room temperature, coverslips were washed five times in PBS and mounted in Vectashield mounting medium with DAPI (Vector Laboratories Inc) on glass slides (VWR Scientific). For presynaptic activity assay, rabbit synaptotagmin antiserum was generated by immunization with a peptide corresponding to the N-terminal luminal portion of synaptotagmin. This serum was added at 1:500 to live cultures and incubated for 6 hours. Cells were then washed 3× in DPSB, fixed and stained as above, except for the omission of synaptotagmin antibody from the primary antibody solution.
(§4) Mounted coverslips were imaged using Nikon Diaphot and Eclipse epifluorescence microscopes (Nikon). Healthy cells that were at least 2 cell diameters from their nearest neighbor were identified and selected at random by eye using DAPI fluorescence. 8-bit digital images of the fluorescence emission at both 594 nm and 488 nm were recorded for each selected cell using a cooled monochrome CCD camera and SPOT image capture software (Diagnostic Instruments, Inc). […]

[3] = test system: RGCs; assay: RGC synapse assay: synaptogenic activity (co-localized synaptotagmin/PSD-95 puncta); type: cell-based, rat; details: for number of co-localized synaptic puncta/cell (synapse number): purified TSPs, 8 nM each, vs RGCs alone (Control)
Procedure: as §1, §2
as §3, with “RCGs were cultured for 4 days to allow robust process outgrowth and then cultured with ACM or an astrocyte-feeding layer for an additional 6 days.” left out
For synapse quantification, cultures were fixed for 7 min in 4% paraformaldehyde (PFA), washed 3× in phosphate buffered saline (PBS) and blocked in 100 μL of blocking buffer (50% Antibody Buffer (0.5% bovine serum albumin, 0.5% Triton X-100, 30 mM NaPO4, 750 mM NaCl, 5% normal goat serum, and 0.4% NaN3, pH 7.4), 50% goat serum (NGS), 0.1% Triton-X) for 30 min. […]
as §4

[4] = test system: naive rats; assay: TSP4-induced behavioral hypersensitivity in naive rats (paw withdrawal threshold, von Frey); type: in vivo, rat

T1 sequence (P49744 43-980): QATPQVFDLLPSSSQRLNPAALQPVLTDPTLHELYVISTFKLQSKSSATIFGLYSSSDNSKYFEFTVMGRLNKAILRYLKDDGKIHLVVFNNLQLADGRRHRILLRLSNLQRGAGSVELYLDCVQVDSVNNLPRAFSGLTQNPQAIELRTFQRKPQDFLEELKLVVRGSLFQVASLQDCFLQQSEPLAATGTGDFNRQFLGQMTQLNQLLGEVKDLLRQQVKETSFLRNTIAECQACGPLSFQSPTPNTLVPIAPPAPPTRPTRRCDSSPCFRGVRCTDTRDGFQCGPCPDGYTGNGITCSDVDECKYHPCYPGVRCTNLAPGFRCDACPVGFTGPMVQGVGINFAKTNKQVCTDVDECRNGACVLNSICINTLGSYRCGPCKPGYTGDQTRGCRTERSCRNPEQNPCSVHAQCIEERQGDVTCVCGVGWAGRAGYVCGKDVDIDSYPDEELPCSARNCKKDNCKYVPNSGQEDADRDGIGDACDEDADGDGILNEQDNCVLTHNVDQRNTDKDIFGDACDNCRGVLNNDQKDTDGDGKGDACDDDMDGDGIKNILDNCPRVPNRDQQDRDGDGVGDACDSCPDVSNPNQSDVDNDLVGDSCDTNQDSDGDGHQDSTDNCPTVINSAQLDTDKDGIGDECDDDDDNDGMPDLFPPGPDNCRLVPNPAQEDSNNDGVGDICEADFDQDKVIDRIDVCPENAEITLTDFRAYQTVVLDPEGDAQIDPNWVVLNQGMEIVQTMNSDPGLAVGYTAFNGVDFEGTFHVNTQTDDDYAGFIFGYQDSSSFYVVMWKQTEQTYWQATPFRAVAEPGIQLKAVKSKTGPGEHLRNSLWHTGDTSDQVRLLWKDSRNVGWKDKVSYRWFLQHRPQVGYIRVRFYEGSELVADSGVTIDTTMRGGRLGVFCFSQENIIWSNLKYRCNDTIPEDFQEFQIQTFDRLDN

5′ CCATCATTGTTGCTATCTTCC 3′ (DNA, backbone and methylation of C not given here; further chemistry not fully specified) [Antisense #2]
duration of antisense effects after the last injection [1]: 3 days | onset time of antisense effects [1]: 3 days | time of peak antisense effect [1]: one day after the 4-day treatment | reversal of established allodynia in the injury (ipsilateral) side [1]: caused a complete reversal of established allodynia | reversal of established allodynia in the injury (ipsilateral) side ([1]; listed as TSP4 antisense oligonucleotide #2): caused a complete reversal of established allodynia in the injury side

5′ GGCGTAATCATGGTCATACG 3′ (DNA, backbone and methylation of C not given here; further chemistry not fully specified) [Antisense #1]
reversal of established allodynia in the injury (ipsilateral) side [1]: had some effects in allodynia reversal

NCCCC(=O)O [GABA, γ-aminobutyric acid]
effect on SD2/TSP-induced synapse formation ([2]; 1 mM (high concentrations)): blocked TSP induced synapse formation; also recorded: inhibitory | effect on synapse numbers induced by SD2 ([2]; 10 and 100 μM): did not decrease the synapse numbers

TSP1: purified human platelet TSP1, trimeric thrombospondin
number of co-localized synaptic puncta/cell (synapse number) [3]: significantly increased the number of co-localized synaptic puncta/cell; also recorded: increased the number of synapses formed by RGCs significantly

TSP3: mouse TSP3 overexpressed in Cos7 cells; conditioned media used as source
number of co-localized synaptic puncta/cell ([3]; culture supernatant of Cos7 cells overexpressing TSP3, vs supernatant of empty-vector Cos7 cells): significantly increased the number of co-localized synaptic puncta/cell; also recorded: increased the number of synaptic puncta to the same extent as astrocytes

TSP4: recombinant purified pentameric thrombospondin 4
duration of behavioral hypersensitivity ([4]; intrathecal bolus): over a week | reversal time post the peak effect time ([4]; intrathecal bolus): about five days | time of peak effect post injection ([4]; intrathecal bolus): 2 to 4 days | hindpaw withdrawal thresholds to von Frey filament stimulation ([4]; intrathecal bolus injection of active protein into L5/6 spinal cord segments): caused a gradual reduction in their hindpaw withdrawal thresholds; also recorded: induced behavioral hypersensitivity in a dose-dependent and reversible manner | number of co-localized synaptic puncta/cell (synapse number) [3]: significantly increased the number of co-localized synaptic puncta/cell; also recorded: increased synaptic puncta numbers to the same extent as either astrocytes or TSP1

B1: Hevin: another astrocyte secreted synaptogenic protein (protein, UniProt Q14515 17-664, looked up)
SPARC-like protein 1: IPTNARLLSDHSKPTAETVAPDNTAIPSLRAEAEENEKETAVSTEDDSHHKAEKSSVLKSKEESHEQSAEQGKSSSQELGLKDQEDSDGHLSVNLEYAPTEGTLDIKEDMSEPQEKKLSENTDFLAPGVSSFTDSNQQESITKREENQEQPRNYSHHQLNRSSKHSQGLRDQGNQEQDPNISNGEEEEEKEPGEVGTHNDNQERKTELPREHANSKQEEDNTQSDDILEESDQPTQVSKMQEDEFDQGNQEQEDNSNAEMEEENASNVNKHIQETEWQSQEGKTGLEAISNHKETEEKTVSEALLMEPTDDGNTTPRNHGVDDDGDDDGDDGGTDGPRHSASDDYFIPSQAFLEAERAQSIAYHLKIEEQREKVHENENIGTTEPGEHQEAKKAENSSNEEETSSEGNMRVHAVDSCMSFQCKRGHICKADQQGKPHCVCQDPVTCPPTKPLDQVCGTDNQTYASSCHLFATKCRLEGTKKGHQLQLDYFGACKSIPTCTDFEVIQFPLRMRDWLKNILMQLYEANSEHAGYLNEKQRNKVKKIYLDEKRLLAGDHPIDLLLRDFKKNYHMYVYPVHWQFSELDQHPMDRVLTHSELAPLRASLVPMEHCITRFFEECDPNKDKHITLKEWGHCFGIKEEDIDENLLF
number of synapses formed ([3]; 3 DIV RGCs treated 9 days, TSP2 EGF-like domains 20 nM, Hevin 30 nM, vs RGCs alone): increased the number of synapses formed significantly
